These results are taken from ChEMBL document CHEMBL1124670, “1-(3-cyano-2,3-dideoxy-beta-D-erythro-pentofuranosyl)thymine (cyanothymidine): synthesis and antiviral evaluation against human immunodeficiency virus” (1989).

Structures are written as SMILES. Converted amounts (≈) assume the structure as drawn.

Common to all, as to format: functional, Homo sapiens
In one experiment the test system is ATH-8 cell line. Description: Protection of ATH8 cells against the cytopathic effect of HIV isolate […]. (Damage to the host cells serves as the signal in cytopathic effect assays.)
In experiment [1] the test system is C8166. Briefly: Protection of C8166 cells against the cytopathic effect of HIV isolate CBL-1.
Experiment [2] concerns C8166. Description: Protection of C8166 cells against the cytopathic effect of HIV isolate RF.
Experiment [3] relates to C8166. Briefly: Pprotection of C8166 cells against the cytopathic effect of HIV isolate RF.

`Cc1cn(C2C[C@@H](C#N)[C@@H](CO)O2)c(=O)[nH]c1=O` (stereo partly drawn): the ED90 in the experiment on ATH-8 cell line is greater than 2.5 µg/mL; in the experiment on C8166 [1], greater than 100 µg/mL; with C8166 [2] it was greater than 100 µg/mL.

On to `Cc1cn([C@H]2C=C[C@@H](CO)O2)c(=O)[nH]c1=O` [STAVUDINE], for which the ED90 in the experiment on ATH-8 cell line was less than 0.25 µg/mL; in the experiment on C8166 [3], 1 µg/mL (≈ 4.46 µM).

With `Cc1cn([C@H]2C[C@H](N=[N+]=[N-])[C@@H](CO)O2)c(=O)[nH]c1=O` [ZIDOVUDINE], the results for the ED90 in the experiment on ATH-8 cell line, in the experiment on C8166 [3] and in the experiment on C8166 [1] were less than 0.25 µg/mL, 1 µg/mL (≈ 3.74 µM) and 0.1 µg/mL (≈ 0.374 µM), respectively.
